{
  "source": "paper PMC11188305",
  "about": "“Reproductive and fetal toxicity studies of histamine H3 receptor antagonist DL76 used in mice to prevent maximal electroshock-induced seizure” (Frontiers in Pharmacology, 2024)",
  "key": {"[1]": {"design": "method as in Szafarz et al., 2015", "details": "ref Szafarz et al., 2015, cited from earlier work"}, "H3R": {"tested_on": "H3R", "design": "method as in Lazewska et al. (2006)", "details": "after p.o. administration to mice; ref Lazewska et al. (2006); cited from earlier work"}, "C57/B6 mouse embryos": {"tested_on": "C57/B6 mouse embryos", "test": "Skeletal malformations (double staining of fetuses)", "format": "in vivo, C57BL/6J mice", "excerpt": "After isolating fetuses from viscera and skin, they underwent a fat-removal process by immersion in acetone for 1–3 days. The resulting transparent specimens underwent a sequence of glycerin solutions (50% and 80%) before being finally stored in 100% glycerin for observation of malformations using a stereo dissecting microscope ([McLeod, 1980]; [Sterz and Lehmann, 1985]; [Abdulrazzaq et al., 1997]; [Bass et al., 2020]). Following this, specimens were processed and stained with Alizarin Red-S and Alcian blue ([McLeod, 1980]; [Sterz and Lehmann, 1985]; [Abdulrazzaq et al., 1997]; [Bass et al., 2020]) to identify bone and cartilage deformities.\nStatistical analyses employed SPSS 26.0 (IBM Middle East, Dubai, UAE). Data were presented as means ± SEM. […] Fetal abnormality data were presented as counts and percentages. Fisher’s exact test compared the percentages of abnormalities between the control group (saline) and the different dose groups. All tests were two-tailed, and significance was set at p < 0.05."}, "several cell lines": {"tested_on": "several cell lines", "design": "method as in Canale et al., 2021", "details": "ref Canale et al., 2021; cited from earlier work"}, "hH2R": {"molecular_target": "T1, hH2R (Homo sapiens, UniProt P25021)", "T1 construct": "host or cells: CHO cells", "T1 sequence (P25021 whole entry)": "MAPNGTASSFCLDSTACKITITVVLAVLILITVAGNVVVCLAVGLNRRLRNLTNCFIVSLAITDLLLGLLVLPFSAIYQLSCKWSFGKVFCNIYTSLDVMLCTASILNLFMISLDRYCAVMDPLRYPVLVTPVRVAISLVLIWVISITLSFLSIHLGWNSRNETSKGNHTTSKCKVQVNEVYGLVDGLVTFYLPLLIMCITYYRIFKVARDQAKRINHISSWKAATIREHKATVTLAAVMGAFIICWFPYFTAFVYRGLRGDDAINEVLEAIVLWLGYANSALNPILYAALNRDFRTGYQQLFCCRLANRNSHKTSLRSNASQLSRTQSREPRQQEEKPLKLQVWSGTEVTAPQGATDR", "test": "hH2R radioligand binding, [125I]APT in CHO cells (Eurofins Cerep)"}},
  "note": "Read-outs that look alike come from different tables or passages of the source.",
  "data": [
    {"molecule": "CC(C)(C)c1ccc(OCCCN2CCCCC2)cc1", "note": "[DL76, 1-(3-(4-tert-butyl-phenoxy)propyl) piperidine]", "values": [
      {"measurement": "AUC0→∞", "setting": "[1]; dose 3 mg/kg", "value": 298, "unit": "ng◦h/mL"},
      {"measurement": "C0", "setting": "[1]; dose 3 mg/kg", "value": 564, "unit": "ng/mL"},
      {"measurement": "AUC0→∞", "setting": "[1]; dose 6 mg/kg", "value": 685, "unit": "ng◦h/mL"},
      {"measurement": "C0", "setting": "[1]; dose 6 mg/kg", "value": 653, "unit": "ng/mL"},
      {"measurement": "concentrations in cortex, hippocampus and striatum higher than in whole brain tissues", "setting": "[1]; experimental animals", "value": 44, "unit": "%"},
      {"measurement": "ED50, in vivo H3R antagonist potency", "setting": "H3R", "value": "2.8 ± 0.4", "unit": "mg/kg"},
      {"measurement": "femur length", "setting": "C57/B6 mouse embryos; 7.5 mg/kg and 60 mg/kg groups", "value": "significantly decreased"},
      {"measurement": "tibia and fibula lengths vs controls", "setting": "C57/B6 mouse embryos; 7.5 mg/kg, 30 mg/kg and 60 mg/kg groups", "value": "significantly decreased"},
      {"measurement": "mean crown-to-rump length vs control groups", "setting": "C57/B6 mouse embryos; 7.5 mg/kg-, 30 mg/kg- and 60 mg/kg-treated groups", "value": "decreased significantly"},
      {"measurement": "humerus and ulna lengths", "setting": "C57/B6 mouse embryos; 30 mg/kg and 60 mg/kg groups", "value": "reduced"},
      {"measurement": "radius length", "setting": "C57/B6 mouse embryos; 30 mg/kg group only", "value": "significant decrease"},
      {"measurement": "femur length", "setting": "C57/B6 mouse embryos; 30 mg/kg group, p = 0.06", "value": "non-significant decrease"},
      {"measurement": "incidence of lumbar ribs vs saline-treated control", "setting": "C57/B6 mouse embryos; DL76-treated group", "value": "not significantly different"},
      {"measurement": "fifth sternebrium, absence or occurrence of hypoplasia, vs control", "setting": "C57/B6 mouse embryos; DL76-treated groups", "value": "no significant difference"},
      {"measurement": "skull or facial bones", "setting": "C57/B6 mouse embryos; all groups", "value": "No significant differences"},
      {"measurement": "vertebrae: number of centra or number of unossified/hypoplastic bodies", "setting": "C57/B6 mouse embryos; all the DL-76-treated groups", "value": "no differences"},
      {"measurement": "crown–rump length and lengths of the long bones of the extremities", "setting": "C57/B6 mouse embryos; higher doses of 30 mg/kg, 60 mg/kg and 15 mg/kg × 3", "value": "seemed to be affected"},
      {"measurement": "in vitro toxicity", "setting": "several cell lines", "value": "without inducing in vitro toxicity"},
      {"measurement": "inhibition at 1 µM", "setting": "hH2R", "value": 2.8, "unit": "%"}
    ]}
  ]
}
